# Measurements reported in patent US9387221B2, “SDF-1 binding nucleic acids and the use thereof in cancer treatment” (NOXXON Pharma AG, priority 2010, dated 2016).
# Entries after “also recorded” stand apart in the source; their conditions may differ.
# Test system: biotinylated human D-SDF-1
# Test: Competitive pull-down binding assay
# Conditions: aptamer level; reference 192-A10-001
# Method: In order to compare different D-SDF-1 binding aptamers, a competitive ranking assay was performed. For this purpose the most affine aptamer available was radioactively labeled (see above) and served as reference. […] An excess of de- and renatured non-labeled D-RNA aptamer variants was added to different concentrations (e.g. 2, 10, and 50 nM) with the labeled reference aptamer to parallel binding reactions. The aptamers to be tested competed with the reference aptamer for target binding, thus decreasing the binding signal in dependence of their binding characteristics.
row,Sequence,binding affinity in competitive pull-down binding assay vs. 192-A10-001
1,GUGUUGCAGGGGUUAGGGCUUGAAGUCGGCCUGCAGCAC (chemistry not given here) [197-E3],weaker binding affinities
2,GUGCUGCGGGGGUUAGGGCUCGAAGUCGGCCCGCAGCAC (chemistry not given here) [197-H3],weaker binding affinities
3,GUGCUGCGGGGGUUAGGGCUCAAAGUCGGCCUGCAGCAC (chemistry not given here) [197-H2],Much weaker binding affinity
4,"GCUGUAAAAGUAACAUGUCAAUGAAAGGUAACUACAGC (aptamer; Made as D-RNA aptamer and L-RNA Spiegelmer, tested form not given here, further chemistry not given here) [192-C9]",Weaker binding affinity
5,"GCUGUGAAAGUAACAUGUCAAUGAAAGGUAACCACUGC (aptamer; Made as D-RNA aptamer and L-RNA Spiegelmer, tested form not given here, further chemistry not given here) [192-G11]",Weaker binding affinity
6,"GCUGUGAAAGUAACACGUCAAUGAAAGGUAACCGCAGC (aptamer; Made as D-RNA aptamer and L-RNA Spiegelmer, tested form not given here, further chemistry not given here) [192-F10]",Weaker binding affinity; also recorded: reduced binding affinity
7,"GCUGUAAAAGUAACAAGUCAAUGAAAGGUAACUACAGC (aptamer; Made as D-RNA aptamer and L-RNA Spiegelmer, tested form not given here, further chemistry not given here) [192-E10]",Weaker binding affinity; also recorded: reduced binding affinity
8,"GCUGUGAAAGCAACAUGUCAAUGAAAGGUAGCCACAGC (aptamer; Made as D-RNA aptamer and L-RNA Spiegelmer, tested form not given here, further chemistry not given here) [192-E9]",much weaker binding affinity
9,"GCUGCGAAAGCGACAUGUCAAUGAAAGGUAGCCGCAGC (aptamer; Made as D-RNA aptamer and L-RNA Spiegelmer, tested form not given here, further chemistry not given here) [192-D10]",much weaker binding affinity
10,"GCUGUGAAAGUAACAUGUCAAUGAAAGGUAACCACAGC (aptamer; Made as D-RNA aptamer and L-RNA Spiegelmer, tested form not given here, further chemistry not given here) [192-G10]",Weaker binding affinity
11,"CGUGCGCUUGAGAUAGGGGUUAGGGCUUAAAGUCGGCUGAUUCUCACG (Made as D-RNA aptamer and L-RNA Spiegelmer, tested form not given here, further chemistry not given here) [190-A3-001]",weaker binding affinities
12,"GCUGUGAAAGUAACAAGUCAAUGAAAGGUAACCACAGC (aptamer; Made as D-RNA aptamer and L-RNA Spiegelmer, tested form not given here, further chemistry not given here) [192-C10]",equal binding affinities; also recorded: equal binding affinity

# Same assay, conditions: compared with 190-A3-001
row,Sequence,binding affinity of derivatives of 190-A3-001
1,"UGAGAUAGGGGUUAGGGCUUAAAGUCGGCUGAUUCUCA (aptamer; Made as D-RNA aptamer and L-RNA Spiegelmer, tested form not given here, further chemistry not given here) [190-A3-003]",does not have an influence on the binding affinity

# Same assay, conditions: reference 191-D5-001
row,Sequence,binding affinity in competitive pull-down binding assay vs. 191-D5-001
1,"CGGGCGAGGUUAGGGCUAGAAGUCGGUCGACCG (Made as D-RNA aptamer and L-RNA Spiegelmer, tested form not given here, further chemistry not given here) [191-D5-004]",reduced binding affinity

# Same assay, conditions: reference 191-D5-007
row,Sequence,binding affinity in competitive pull-down binding assay vs. 191-D5-007
1,GGGCGGGUUAGGGCUAGAAGUCGGCGCCC (chemistry not fully specified) [191-D5-024-29b],identical binding affinity to SDF-1 as 191-D5-007
2,GGCCGGGGUUAGGGCUAGAAGUCGGCCGGCC (chemistry not fully specified) [197-B2-006-31a],the same as shown for 191-D5-007 and 197-B2-006

# Same assay, conditions: reference 193-G2-001
row,Sequence,binding to human SDF-1 in comparison to 193-G2-001
1,GCGAGGUGUGAUCUAGAUGUAGUGGCUGAUCCUAGUCAGGUGCGC (chemistry not fully specified) [193-G1-002],reduced binding; also recorded: weaker binding affinities
2,GCGUGGUGUGAUCUAGAUGUAAAGGCUGAUCCUAGUCAGGUACGC (chemistry not fully specified) [193-H3-002],reduced binding
3,GCGUGGUGUGAUCUAGAUGUAAUGGCUGAUCCUAGUCAGGGACGC (chemistry not fully specified) [193-D3-002],reduced binding; also recorded: weaker binding affinities
4,GCAUGGUGUGAUCUAGAUGUAGUGGCUGAUCCUAGUCAGGUGCCC (chemistry not fully specified) [193-A1-002],reduced binding; also recorded: weaker binding affinities
5,GCGUGGUGUGAUCUAGAUGUAGUGGCUGAUCCUAGUCAGGUGCGC (chemistry not fully specified) [193-D2-002],reduced binding; also recorded: weaker binding affinities
6,GCGUGGUGUGAUCUAGAUGUAGAGGCUGAUCCUAGUCAGGUACGC (chemistry not fully specified) [193-B3-002],reduced binding
7,GUGGUGUGAUCUAGAUGUAGUGGCUGUUCCUAGUCAGGUAUGC (chemistry not fully specified) [193-E3-002],reduced binding

# Same assay, conditions: vs. 192-A10-001 and 192-A10-008
row,Sequence,binding affinity of derivatives of 192-A10-001 in competitive pull-down binding assay
1,GGGCAAAGCAACAUGUCAAUGAAAGGUAGCGCCC (aptamer; chemistry not given here) [192-A10-020],"weaker, much weaker or very much weaker binding affinity"
2,CGCGAAAGCAACAUGUCAAUGAAAGGUAGCCGUG (aptamer; chemistry not given here) [192-A10-019],"weaker, much weaker or very much weaker binding affinity"
3,GUGCAAAGCAACAUGUCAAUGAAAGGUAGCGCGC (aptamer; chemistry not given here) [192-A10-018],"weaker, much weaker or very much weaker binding affinity"
4,"CUGUGAAAGCAACAUGUCAAUGAAAGGUAGCCGCAG (aptamer; Made as D-RNA aptamer and L-RNA Spiegelmer, tested form not given here, further chemistry not given here) [192-A10-002]",without reduction of binding affinity
5,GCCCAAAGCAACAUGUCAAUGAAAGGUAGCGGGC (aptamer; chemistry not given here) [192-A10-022],"weaker, much weaker or very much weaker binding affinity"
6,AAAGCAACAUGUCAAUGAAAGGUAGC (chemistry not fully specified) [192-A10-007],reduced binding affinity
7,CGUGAAAGCAACAUGUCAAUGAAAGGUAGCCGCG (aptamer; chemistry not given here) [192-A10-016],"weaker, much weaker or very much weaker binding affinity"
8,"GCGCGAAAGCAACAUGUCAAUGAAAGGUAGCCGCGC (aptamer; Made as D-RNA aptamer and L-RNA Spiegelmer, tested form not given here, further chemistry not given here) [192-A10-015]","reduced binding affinity; also recorded: weaker, much weaker or very much weaker binding affinity"

# Same assay, conditions: vs. 193-G2-001 and 193-G2-012
row,Sequence,binding affinity of derivatives of 193-G2-001 and 193-C2-001 in competitive pull-down binding assay
1,GGCCGUGUGAUCUAGAUGUAUUGGCUGAUCCUAGUCAGGGGCC (chemistry not fully specified) [193-G2-016],reduced binding affinity
2,"GGUGUGAUCUAGAUGUAGUGGCUGAUCCUAGUCAGGU (Listed both as L-RNA Spiegelmer and D-RNA aptamer, further chemistry not given here) [193-C2-006]",reduced binding affinity
3,GCGCGUGUGAUCUAGAUGUAUUGGCUGAUCCUAGUCAGGGCGC (chemistry not fully specified) [193-G2-014],reduced binding affinity
4,GCCCGUGUGAUCUAGAUGUAUUGGCUGAUCCUAGUCAGGGGGC (chemistry not fully specified) [193-G2-017],reduced binding affinity
5,"GUGUGAUCUAGAUGUAGUGGCUGAUCCUAGUCAGG (Listed both as L-RNA Spiegelmer and D-RNA aptamer, further chemistry not given here) [193-C2-007]",reduced binding affinity
